Legend:
[1] = system: STING agonist (MSA-2) stimulation; test: In vivo anti-inflammatory effect of injection administration on STING agonist (MSA-2) stimulation; parameters: species or system C57BL6 female mice; details: I-77 10mpk, IP
Method: (§1) 6-8 week C57BL6 female mice, purchased from Shanghai Jihui Experimental Animal Breeding Co., Ltd. Compound preparation method: 2 mg of I-77 powder was taken, 12 µL of PEG400 was added thereto and ultrasonically dissolved, and then 8 µL of Tween 80 was added and ultrasonically mixed to prepare a 100 mg/mL stock solution.
(§2) Experimental grouping: The control group was administered vehicle solvent; The model group was administered MSA-2 (10mpk, dissolved in 40% PEG400); The treatment group (I-77) was administered MSA-2 and I-77 (10mpk, IP). A final concentration of 10 mg/mL of I-77 solution was prepared by dilution with double distilled water, and 200 µL of the solution was taken and injected intraperitoneally into the mice in treatment group; The control group and MSA-2 group were injected intraperitoneally with 200 µL of vehicle solvent diluted 10 times. […] After high-speed centrifugation of blood samples, the plasma was taken and diluted by 2 times, and the levels of CXCL10 and IL6 in the plasma were detected using the Lianke ELISA kit. RNA was extracted from heart and kidney samples, and reversed to cDNA, and inflammation related cytokines (ISG15, ISG56, IL6, and IP10) in tissues were detected using qPCR technology. […]

[2] = system: STING agonist (MSA-2) stimulation; test: In vivo anti-inflammatory effect of oral administration on STING agonist (MSA-2) stimulation; parameters: species or system C57BL6 female mice; details: I-77 20mpk
Method: as §1
as §2, with “I-77 (20mpk, PO).” for “I-77 (10mpk, IP).”, “of […]” for “of 10”, “and administered intragastrically” for “and injected intraperitoneally”, “were administered intragastrically” for “were injected intraperitoneally”

[3] = system: ISG gene expression induced by MSA-2 in human THP1-Dual cells; test: Inhibition of MSA-2-induced ISG gene expression in human THP1-Dual cells (QUANTI-Luc); format: cell-based; details: STING agonist MSA-2 10 µM, incubated for 24 hours
Method: 10 µL of compound diluted with PBS/physiological saline was added to each well of a 96 well cell culture plate. The STING agonist was MSA-2, which was added to the counted cell suspension at a final concentration of 10 µM. For the control group without compounds, 10 µL of PBS/physiological saline containing 2% DMSO was added. 3 replicate wells were set in each group. THP1-Dual cells were counted and adjusted to a cell concentration of 4×10^5/mL, and 190 µL of cells containing STING agonist were added to each well for incubation. Therefore, the final volume of each test well was 200 µL, the content of DMSO was 0.1%, and the final concentration of the compound tested was 10/3.3/1.1/0.4/0.13/0.04/0.013/0.004 µM, incubated for 24 hours. In addition, 190 µL of cells without STING agonist and 10 µL of physiological saline containing 2% DMSO were added to the blank group. 3 replicate wells were set in each group.
After 24 hours, 20 µL of culture medium for THP1-Dual cells was taken from each well and transferred to a new 96 well plate with photopermeable bottom. 50 µL of the luciferase detection reagent QUANTI-Luc™ was added, and the […] was immediately measured (avoid light). Result analysis:Inhibition rate (%) = (Con(Lum)−Treated(Lum))/Con(Lum) × 100% [formula]
The IC50 calculation of inhibitors was implemented using the Graphpad Prism 8 software's calculation method log (inhibitor) vs. response - Variable slope (four parameters), with a constrain interval of 0-100.

[4] = system: STING-V154M mutant autoimmune mouse disease model; test: Inflammatory inhibitory effect of oral administration in STING-V154M mutant autoimmune mouse disease model; format: in vivo; details: I-77 20mpk
Method: The model mice were purchased from GEMPHARMATECH CO., LTD., and the wild-type C57/BL6 mice were also purchased from GEMPHARMATECH CO., LTD... Compound preparation method: 2 mg of I-77 powder was taken, 12 µL of PEG400 was added thereto and ultrasonically dissolved, and then 8 µL of Tween 80 was added and ultrasonically mixed to prepare a 100 mg/mL stock solution.
Experimental grouping: Wild type mice control group (Control) was administered vehicle solvent; The model mice group (Model) was administered solvent; The treatment group (I-77) was administered I-77 (20mpk, PO) to the model mice. The mice in the I-77 treatment group were intragastrically administered 200 µL of I-77 solution at a final concentration of […] which was prepared by dilution with double-distilled water; The same dose of solvent was administered to the remaining groups until the mortality rate of the model group exceeded 50%. The kidneys and heart were collected from the experimental endpoint samples. RNA extraction was performed on heart and kidneys samples, and the RNA was reversed to cDNA. Changes in gene expression of inflammation related cytokines (ISG15, CCL5, IP10, ISG56) in the tissues were detected using qPCR technology. Statistical method: One way ANOVA, *P<0.05, **P<0.01, ***P<0.001, ***P<0.0001.

Structure (SMILES): CC1(C)C(=O)N(Cc2ccsc2)c2cc(C(=O)Nc3c[nH]c4ccccc34)ccc21 [Example I-77, N-(1H-indol-3-yl)-3,3-dimethyl-2-oxo-1-(thien-3-ylmethyl)indolin-6-carboxamide]
- IL6 and IP10 levels in plasma stimulated by MSA-2 ([1]; 3 hours before MSA-2 (10mpk), plasma ELISA 3 hours after MSA-2, Figure 1): significantly inhibit the increase
- inflammatory response of the heart and kidneys induced by MSA-2 stimulation ([1]; qPCR of ISG15, ISG56, IL6, IP10 in tissues, Figures 2, 3): suppress the inflammatory response
- levels of IL6 and IP10 in plasma induced by MSA-2 injection ([2]; 1 hour before MSA-2 (10mpk), plasma ELISA after 4 hours, Figure 4): significantly reduced
- inflammatory response of the heart and kidneys induced by MSA-2 stimulation ([2]; qPCR of ISG15, ISG56, IL6, IP10 in tissues, Figures 5, 6): inhibited the inflammatory response
- IC50 [3]: 0.63 nM
- cardiac and renal inflammatory responses of STING V154M mutant model mice ([4]; qPCR of ISG15, CCL5, IP10, ISG56 in heart and kidneys, Figures 8, 9): inhibit the cardiac and renal inflammatory responses
- survival of STING V154M mutant model mice ([4]; until mortality of the model group exceeded 50%, Figure 7): significantly prolong the survival
